Data as given in patent US9359308B2, “Pyrazine kinase inhibitors” (Portola Pharmaceuticals, Inc., priority 2011, dated 2016).

The molecules below were run against T1, full length active recombinant SYK enzyme (Homo sapiens, UniProt P43405) (assay: Inhibition of Syk tyrosine phosphorylation activity (LANCE TR-FRET kinase assay)). Details: activity in the Syk assays, class symbols.
T1 construct: full length active recombinant SYK enzyme (Millipore, Calif.); purchased Millipore
Assay type: biochemical
Procedure, shortened: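 IC50 was derived by non-linear regression of TR-FRET signal (Eu-W1024-PY100 donor, streptavidin-APC acceptor) read 1 h after EDTA quench. The kinase step ran 1 h at room temperature with 1 nM full-length SYK, 550 nM biotinylated DEEDYESP substrate and 100 μM ATP in Tris pH 7.5/MgCl2/DTT at 3% final DMSO.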

Compound	IC50 [nM]
N#CCN1CC[C@@H](Nc2cnc(C(N)=O)c(Nc3cnc4ccncc4c3)n2)C1 [Example 118, (R)-3-((1,6-naphthyridin-3-yl)amino)-5-((1-(cyanomethyl)pyrrolidin-3-yl)amino)pyrazine-2-carboxamide]	100 to 1000
NC(=O)c1ncc(N[C@@H](C(N)=O)c2ccccc2)nc1Nc1cnc2cccnc2c1 [Example 411, (R)-3-(1,5-naphthyridin-3-ylamino)-5-(2-amino-2-oxo-1-phenylethylamino)pyrazine-2-carboxamide]	10 to 100
NC(=O)c1ncc(N[C@@H]2CCNC2)nc1Nc1cnc2ccccc2c1 [Example 55, (R)-5-(pyrrolidin-3-ylamino)-3-(quinolin-3-ylamino)pyrazine-2-carboxamide]	1 to 10
CC[C@@H](Nc1cnc(C(N)=O)c(Nc2cc(OC)cc(OC)c2)n1)C(N)=O [Example 158, (R)-5-(1-amino-1-oxobutan-2-ylamino)-3-(3,5-dimethoxyphenylamino)pyrazine-2-carboxamide]	10 to 100
COc1cc(Nc2nc(N[C@@H](C(N)=O)C(C)C)cnc2C(N)=O)ccn1 [Example 315, (R)-5-(1-amino-3-methyl-1-oxobutan-2-ylamino)-3-(2-methoxypyridin-4-ylamino)pyrazine-2-carboxamide]	10 to 100
NC(=O)c1ncc(NCC2(N)CC2)nc1Nc1ccc2ncccc2c1 [Example 128, 5-(((1-aminocyclopropyl)methyl)amino)-3-(quinolin-6-ylamino)pyrazine-2-carboxamide]	1 to 10
Cc1ccc(Nc2nc(N[C@H](CC(F)F)C(N)=O)cnc2C(N)=O)cc1 [Example 123, (R)-5-((1-amino-4,4-difluoro-1-oxobutan-2-yl)amino)-3-(p-tolylamino)pyrazine-2-carboxamide]	1 to 10
NC(=O)c1ncc(N[C@H]2CC[C@@H](N)CC2)nc1Nc1cccc(-c2ncccn2)c1 [Example 184, 5-((1s,4s)-4-aminocyclohexylamino)-3-(3-(pyrimidin-2-yl)phenylamino)pyrazine-2-carboxamide]	1 to 10
CC[C@@H](Nc1cnc(C(N)=O)c(Nc2snc3ccccc23)n1)C(N)=O [Example 269, (R)-5-(1-amino-1-oxobutan-2-ylamino)-3-(benzo[c]isothiazol-3-ylamino)pyrazine-2-carboxamide]	< 1
CC(C)[C@@H](Nc1cnc(C(N)=O)c(Nc2cccc(OC(F)(F)F)c2)n1)C(N)=O [Example 147, (R)-5-(1-amino-3-methyl-1-oxobutan-2-ylamino)-3-(3-(trifluoromethoxy)phenylamino)pyrazine-2-carboxamide]	100 to 1000
NC(=O)c1ncc(N[C@@H]2CCCC(F)(F)[C@@H]2N)nc1Nc1ccc2ncccc2c1 [Example 14, 5-((1R,2R)-2-amino-3,3-difluorocyclohexylamino)-3-(quinolin-6-ylamino)pyrazine-2-carboxamide]	1 to 10
Cc1cc(Nc2nc(N[C@@H](C(N)=O)C(C)(C)C)cnc2C(N)=O)sn1 [Example 214, (R)-5-(1-amino-3,3-dimethyl-1-oxobutan-2-ylamino)-3-(3-methylisothiazol-5-ylamino)pyrazine-2-carboxamide]	10 to 100
CC[C@@H](Nc1cnc(C(N)=O)c(Nc2ccc3cnccc3c2)n1)C(N)=O [Example 368, (R)-5-(1-amino-1-oxobutan-2-ylamino)-3-(isoquinolin-6-ylamino)pyrazine-2-carboxamide]	1 to 10
CC[C@@H](Nc1cnc(C(N)=O)c(Nc2ccc3nccn3c2)n1)C(N)=O [Example 426, (R)-5-((1-amino-1-oxobutan-2-yl)amino)-3-(imidazo[1,2-a]pyridin-6-ylamino)pyrazine-2-carboxamide]	1 to 10
Cc1cc(Nc2nc(N[C@H](C)C(N)=O)cnc2C(N)=O)sn1 [Example 215, (R)-5-(1-amino-1-oxopropan-2-ylamino)-3-(3-methylisothiazol-5-ylamino)pyrazine-2-carboxamide]	10 to 100
CC(C)(C)[C@@H](Nc1cnc(C(N)=O)c(Nc2cnc3ccc(F)cc3c2)n1)C(N)=O [Example 234, (R)-5-(1-amino-3,3-dimethyl-1-oxobutan-2-ylamino)-3-(6-fluoroquinolin-3-ylamino)pyrazine-2-carboxamide]	1 to 10
CC(C)C[C@@H](Nc1cnc(C(N)=O)c(Nc2ccc(C(=O)N(C)C)cc2)n1)C(N)=O [Example 281, (R)-5-(1-amino-4-methyl-1-oxopentan-2-ylamino)-3-(4-(dimethylcarbamoyl)phenylamino)pyrazine-2-carboxamide]	10 to 100
Cc1cc(Nc2nc(N[C@@H]3CCOC[C@@H]3N)cnc2C(N)=O)sn1 [Example 408, 5-((3R,4R)-3-aminotetrahydro-2H-pyran-4-ylamino)-3-(3-methylisothiazol-5-ylamino)pyrazine-2-carboxamide]	1 to 10
CC(C)C[C@@H](Nc1cnc(C(N)=O)c(Nc2ccc(C(=O)N3CCC3)cc2)n1)C(N)=O [Example 293, (R)-5-(1-amino-4-methyl-1-oxopentan-2-ylamino)-3-(4-(azetidine-1-carbonyl)phenylamino)pyrazine-2-carboxamide]	1 to 10
COc1cc(Nc2nc(N[C@@H]3CCCC(F)(F)[C@@H]3N)cnc2C(N)=O)ccn1 [Example 331, 5-((1R,2R)-2-amino-3,3-difluorocyclohexylamino)-3-(2-methoxypyridin-4-ylamino)pyrazine-2-carboxamide]	10 to 100
NC(=O)c1ncc(N[C@H](Cc2ccncc2)C(N)=O)nc1Nc1ccc2ncccc2c1 [Example 361, (R)-5-(1-amino-1-oxo-3-(pyridin-4-yl)propan-2-ylamino)-3-(quinolin-6-ylamino)pyrazine-2-carboxamide]	10 to 100
NC(=O)c1ncc(N[C@@H]2CCCC(F)(F)[C@@H]2N)nc1Nc1ccc2c(c1)CCC(=O)N2 [Example 25, 5-((1R,2R)-2-amino-3,3-difluorocyclohexylamino)-3-(2-oxo-1,2,3,4-tetrahydroquinolin-6-ylamino)pyrazine-2-carboxamide]	1 to 10
Cc1ccc(Nc2nc(N[C@H](CC3CC3)C(N)=O)cnc2C(N)=O)cc1C [Example 172, (R)-5-(1-amino-3-cyclopropyl-1-oxopropan-2-ylamino)-3-(3,4-dimethylphenylamino)pyrazine-2-carboxamide]	1 to 10
CC[C@@H](Nc1cnc(C(N)=O)c(Nc2cccc3ncccc23)n1)C(N)=O [Example 375, (R)-5-(1-amino-1-oxobutan-2-ylamino)-3-(quinolin-5-ylamino)pyrazine-2-carboxamide]	1 to 10
CC(C)[C@@H](Nc1cnc(C(N)=O)c(Nc2ccc(-c3ccccn3)cc2)n1)C(N)=O [Example 209, (R)-5-(1-amino-3-methyl-1-oxobutan-2-ylamino)-3-(4-(pyridin-2-yl)phenylamino)pyrazine-2-carboxamide]	10 to 100

Continued, values first:

IC50 [nM]	Compound
10 to 100	NC(=O)c1ncc(N[C@@H]2CCCC(F)(F)[C@@H]2N)nc1Nc1cccnc1 [Example 371, 5-((1R,2R)-2-amino-3,3-difluorocyclohexylamino)-3-(pyridin-3-ylamino)pyrazine-2-carboxamide]
1 to 10	NC(=O)c1ncc(N[C@@H]2CCCC[C@@H]2N)nc1Nc1cncc(-c2ncccn2)c1 [Example 422]
10 to 100	NC(=O)c1ncc(N[C@@H]2CCCC[C@@H]2N)nc1N[C@H]1COc2ccccc2C1 [Example 415, 5-(((1R,2S)-2-aminocyclohexyl)amino)-3-((R)-chroman-3-ylamino)pyrazine-2-carboxamide]
> 1000	NC(=O)c1ncc(N[C@@H]2CCCC[C@@H]2N)nc1Nc1cncs1 [Example 449, 5-(((1R,2S)-2-aminocyclohexyl)amino)-3-(thiazol-5-ylamino)pyrazine-2-carboxamide]
10 to 100	Cc1cccc(Nc2nc(N[C@H]3CC[C@@H](N)CC3)cnc2C(N)=O)c1 [Example 183, 5-((1s,4s)-4-aminocyclohexylamino)-3-(m-tolylamino)pyrazine-2-carboxamide]
100 to 1000	NC(=O)c1ncc(N[C@@H]2CCCC[C@@H]2N)nc1N[C@@H]1CCc2ccccc21 [Example 38, 5-((1R,2S)-2-aminocyclohexylamino)-3-((R)-2,3-dihydro-1H-inden-1-ylamino)pyrazine-2-carboxamide]
1 to 10	NC(=O)c1ncc(N[C@@H]2CCCC[C@@H]2N)nc1Nc1cc(-c2ncccn2)cc(-c2ncccn2)c1 [Example 423, 5-(((1R,2S)-2-aminocyclohexyl)amino)-3-((3,5-di(pyrimidin-2-yl)phenyl)amino)pyrazine-2-carboxamide]
100 to 1000	Cc1cccc(Nc2nc(N[C@@H]3CCCC[C@@H]3N)cnc2C(N)=O)c1 [Example 61, 5-((1R,2S)-2-aminocyclohexylamino)-3-(m-tolylamino)pyrazine-2-carboxamide]
1 to 10	Cn1ccc2c(Nc3nc(N[C@@H]4CCCC[C@@H]4N)cnc3C(N)=O)cccc21 [Example 11, 5-((1R,2S)-2-aminocyclohexylamino)-3-(1-methyl-1H-indol-4-ylamino)pyrazine-2-carboxamide]
1 to 10	NC(=O)c1ncc(N[C@@H]2CCCC[C@@H]2N)nc1Nc1cnc2ccc(F)cc2c1 [Example 198, 5-((1R,2S)-2-aminocyclohexylamino)-3-(6-fluoroquinolin-3-ylamino)pyrazine-2-carboxamide]
100 to 1000	CN(C)C(=O)c1ccc(F)c(Nc2nc(N[C@@H]3CCCC[C@@H]3N)cnc2C(N)=O)c1 [Example 288, 5-((1R,2S)-2-aminocyclohexylamino)-3-(5-(dimethylcarbamoyl)-2-fluorophenylamino)pyrazine-2-carboxamide]
10 to 100	NC(=O)c1ncc(N[C@@H]2CCCC[C@@H]2N)nc1Nc1ccnnc1 [Example 213, 5-((1R,2S)-2-aminocyclohexylamino)-3-(pyridazin-4-ylamino)pyrazine-2-carboxamide]
